In patent US12329737B2, “Dendrilla membranosa compounds, derivatives thereof, and uses thereof” (UNIVERSITY OF SOUTH FLORIDA, priority 2018, dated 2025):
Converted amounts (≈) assume the structure as drawn.

Key:
J774A.1 = test: mammalian cytotoxicity assay; type: cell-based
[1] = test system: multidrug resistant S. aureus biofilm; test: minimum biofilm eradication concentration (MBEC), MRSA biofilm; type: cell-based; settings: for MBEC90: 90% of population eradicated compared to no treatment
Excerpt: Each sample tested in triplicate for all concentrations. Calculated based on no drug controls and represented as a log 10 scale. Error=±SEM. MBEC 90/50: level to which 90% or 50% of the population was eradicated compared to no treatment.

MRSA = test: standard MRSA assay (MIC); type: cell-based; settings: Staphylococcus aureus
MRSA biofilm = test: standard biofilm assay; type: cell-based, Staphylococcus aureus

| SMILES | Cytotoxicity (μM) against strain J774A.1 (J774A.1) [µM] | also measured |
| --- | --- | --- |
| CC(=O)O[C@@H]1OC2OC(=O)[C@H](C)c3c([C@@]4(C)CCCC(C)(C)C4)ccc1c32 (stereo partly drawn) [Compound 1, aplysulphurin] | 12.3 |  |
| CC(=O)O[C@@H]1OC2OC(=O)[C@H](C)C3=C([C@@]4(C)CCCC(C)(C)C4)CCC1C32 (stereo partly drawn) [Compound 2, tetrahydroaplysulphurin] | >133 |  |
| COC(=O)[C@H](C)c1c([C@@]2(C)CCCC(C)(C)C2)ccc2c1C(=O)OC2 [Compound 3, membranolide] | 76.8 | MBEC90 [1]: < 25 mg/mL |
| COC(=O)[C@H](C)C1=C([C@@]2(C)CCCC(C)(C)C2)CCC2COC(=O)C12 (stereo partly drawn) [Compound 4, tetrahydromembranolide] | 64.9 |  |
| CO[C@H]1OC(=O)[C@H](C)c2c([C@@]3(C)CCCC(C)(C)C3)ccc(C=O)c21 [Compound 5, membranoid A] | 54.6 |  |
| CO[C@H]1O[C@H](OC)c2c1ccc([C@@]1(C)CCCC(C)(C)C1)c2[C@@H](C)C(=O)O [Compound 6, membranoid B] | >133 |  |
| CO[C@@H]1O[C@@H](OC)c2c1ccc([C@@]1(C)CCCC(C)(C)C1)c2[C@@H](C)C(=O)O [Compound 7, membranoid C] | >133 | MRSA biofilm bioactivity [1]: lacked MRSA biofilm bioactivity |
| CO[C@@H]1O[C@H](OC)c2c1ccc([C@@]1(C)CCCC(C)(C)C1)c2[C@@H](C)C(=O)O [Compound 8, membranoid D] | >133 | MRSA biofilm bioactivity [1]: lacked MRSA biofilm bioactivity |
| CO[C@H]1O[C@@H](OC)c2c1ccc([C@@]1(C)CCCC(C)(C)C1)c2[C@@H](C)C(=O)O [Compound 9, membranoid E] | 95 |  |
| C[C@H]1C(=O)O[C@@H](O)c2c(C=O)ccc([C@@]3(C)CCCC(C)(C)C3)c21 [Compound 10, membranoid G] | >151 |  |
| CO[C@@H]1O[C@@H](OC(C)=O)c2ccc([C@@]3(C)CCCC(C)(C)C3)c([C@@H](C)C(=O)O)c21 [Compound 11, membranoid X] | 62.9 |  |
| COC(=O)[C@H](C)c1c([C@@]2(C)CCCC(C)(C)C2)ccc2c1[C@H](O)OC2=O [Compound 12, membranoid Y] | >139 |  |
| CCC1=C(C=O)[C@H](C(=O)OC)CC[C@@H]1[C@@]1(C)CCCC(C)(C)C1 [Compound 17] |  | MBEC90 [1]: 50 mg/mL |
| CC(=O)O[C@@H]1OC2OC(=O)[C@H](C)[C@@]34OO[C@@]([C@@]5(C)CCCC(C)(C)C5)(CCC1C23)O4 (stereo partly drawn) [Compound 18, Tetrahydroaplytrioxolane] |  | MRSA biofilm bioactivity [1]: lacked MRSA biofilm bioactivity |
| CC(=O)O[C@@H]1O[C@H](OC(C)=O)[C@H]2C(=O)[C@@H]([C@@]3(C)CCCC(C)(C)C3)CC[C@@H]12 [Compound 19, keto-9, 11-dihydrogracilin A] |  | MBEC90 [1]: 50 mg/mL |
| C[C@@H](CO)c1c([C@@]2(C)CCCC(C)(C)C2)ccc(CO)c1CO [Compound 20, Mebranolide triol] |  | MRSA biofilm bioactivity [1]: lacked MRSA biofilm bioactivity |
| CC(=O)O[C@@H]1OC2OC(=O)C3=C(C)C([C@@]4(C)CCCC(C)(C)C4)CCC1C32 (stereo partly drawn) [Compound 24, Darwinolide] | 20.13 | MIC (MRSA): ~133 µM (≈ 50 µg/mL); MIC in a standard biofilm assay (MRSA biofilm): 33.2 µM (≈ 12.5 µg/mL); MBEC90 [1]: 35 mg/mL; mammalian (J773) toxicity (J774A.1; J773 cells, mammalian cytotoxicity assay): 73.4 µM |
